Test results as given in patent US6613718B2, “Aryl ether derivatives and processes for their preparation and herbicidal and desiccant compositions containing them” (Ishihara Sangyo Kaisha, Ltd., priority 2001, dated 2003).

What was measured:
Format in all cases: in vivo
Settings in all cases: 14 days after application
[1] = system: barnyardgrass (Echinochloa crus-galli, ECHCG); assay: Pre-emerge greenhouse herbicide activity screening, phytotoxicity rating
Method in brief: (§1)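 Compounds in acetone track-sprayed at 15–1000 g ai/ha, 187 l/ha, onto sandy loam pots sown one day before (pre-emerge) or on 2-3 leaf plants (post-emerge, plus 0.25% v/v non-ionic surfactant). Phytotoxicity rated at 14 days, 0 (no damage) to 100 (all plants dead).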

[2] = system: common ragweed (Ambrosia artemisiifolia L., AMBEL); assay: as above
Method in brief: as §1

[3] = system: green foxtail (Setaria viridis, SETVI); assay: as above
Method in brief: as §1

[4] = system: ivyleaf morningglory (Ipomoea hederacea, IPOHE); assay: as above
Method in brief: as §1

[5] = system: johnsongrass (Sorghum halepense, SORHA); assay: as above
Method in brief: as §1

[6] = system: lambsquarters (Chenopodium album, CHEAL); assay: as above
Method in brief: as §1

[7] = system: large crabgrass (Digitaria sanguinalis, DIGSA); assay: as above
Method in brief: as §1

[8] = system: redroot pigweed (Amaranthus retroflexus, AMARE); assay: as above
Method in brief: as §1

[9] = system: sicklepod (Cassia obtusifolia, CASOB); assay: as above
Method in brief: as §1

[10] = system: velvetleaf (Abutilon theophrasti, ABUTH); assay: as above
Method in brief: as §1

[11] = system: field corn (Zea mays L., var. Dekalb 535, CORN); assay: Pre-emerge greenhouse screening, crop safety (phytotoxicity rating)
Method in brief: as §1

[12] = system: soybean (Glycine max L., var. Pella 86, SOY); assay: as above
Method in brief: as §1

[13] = system: upland rice (Oryza sp., var.Tebonnet, RICE); assay: as above
Method in brief: as §1

[14] = system: barnyardgrass (Echinochloa crus-galli, ECHCG); assay: Post-emerge greenhouse herbicide activity screening, phytotoxicity rating
Method in brief: as §1

[15] = system: common ragweed (Ambrosia artemisiifolia L., AMBEL); assay: as above
Method in brief: as §1

[16] = system: green foxtail (Setaria viridis, SETVI); assay: as above
Method in brief: as §1

[17] = system: ivyleaf morningglory (Ipomoea hederacea, IPOHE); assay: as above
Method in brief: as §1

[18] = system: johnsongrass (Sorghum halepense, SORHA); assay: as above
Method in brief: as §1

[19] = system: lambsquarters (Chenopodium album, CHEAL); assay: as above
Method in brief: as §1

[20] = system: large crabgrass (Digitaria sanguinalis, DIGSA); assay: as above
Method in brief: as §1

[21] = system: redroot pigweed (Amaranthus retroflexus, AMARE); assay: as above
Method in brief: as §1

[22] = system: sicklepod (Cassia obtusifolia, CASOB); assay: as above
Method in brief: as §1

[23] = system: velvetleaf (Abutilon theophrasti, ABUTH); assay: as above
Method in brief: as §1

[24] = system: field corn (Zea mays L., var. Dekalb 535, CORN); assay: Post-emerge greenhouse screening, crop safety / corn selectivity (phytotoxicity rating)
Method in brief: as §1

[25] = system: soybean (Glycine max L., var. Pella 86, SOY); assay: Post-emerge greenhouse screening, crop safety (phytotoxicity rating)
Method in brief: as §1

[26] = system: upland rice (Oryza sp., var.Tebonnet, RICE); assay: as above
Method in brief: as §1

`Cn1c(=S)n(C)c(=O)n(-c2cc(Oc3ccccc3)c(Cl)cc2F)c1=O` [Compound 2-16] was tested, and the “ECHCG phytotoxicity rating (0-100 scale)” value ([1]; 125 g ai/ha) was 35, the “ECHCG phytotoxicity rating (0-100 scale)” value ([1]; 250 g ai/ha) was 60 and the “AMBEL phytotoxicity rating (0-100 scale)” value ([2]; 125 g ai/ha) was 50. The “AMBEL phytotoxicity rating (0-100 scale)” value ([2]; 250 g ai/ha) was 55, the “SETVI phytotoxicity rating (0-100 scale)” value ([3]; 125 g ai/ha) was 60 and the “SETVI phytotoxicity rating (0-100 scale)” value ([3]; 250 g ai/ha) was 95. The “IPOHE phytotoxicity rating (0-100 scale)” value ([4]; 125 g ai/ha) was 0, the “IPOHE phytotoxicity rating (0-100 scale)” value ([4]; 250 g ai/ha) was 10 and the “SORHA phytotoxicity rating (0-100 scale)” value ([5]; 125 g ai/ha) was 35. For the same compound, the “SORHA phytotoxicity rating (0-100 scale)” value ([5]; 250 g ai/ha) was 75, the “CHEAL phytotoxicity rating (0-100 scale)” value ([6]; 125 g ai/ha) was 100 and the “CHEAL phytotoxicity rating (0-100 scale)” value ([6]; 250 g ai/ha) was 100. The “DIGSA phytotoxicity rating (0-100 scale)” value ([7]; 125 g ai/ha) was 75, the “DIGSA phytotoxicity rating (0-100 scale)” value ([7]; 250 g ai/ha) was 80 and the “AMARE phytotoxicity rating (0-100 scale)” value ([8]; 125 g ai/ha) was 99. For the same compound, the “AMARE phytotoxicity rating (0-100 scale)” value ([8]; 250 g ai/ha) was 100, the “CASOB phytotoxicity rating (0-100 scale)” value ([9]; 125 g ai/ha) was 20 and the “CASOB phytotoxicity rating (0-100 scale)” value ([9]; 250 g ai/ha) was 35. For the same compound, the “ABUTH phytotoxicity rating (0-100 scale)” value ([10]; 125 g ai/ha) was 55, the “ABUTH phytotoxicity rating (0-100 scale)” value ([10]; 250 g ai/ha) was 60 and the “CORN crop damage, phytotoxicity rating (0-100 scale)” value (from here on “CORN crop damage”) ([11]; 125 g ai/ha) was 0. The “CORN crop damage” value ([11]; 250 g ai/ha) was 5, the “SOY crop damage, phytotoxicity rating (0-100 scale)” value (“SOY crop damage” below) ([12]; 125 g ai/ha) was 0 and the “SOY crop damage” value ([12]; 250 g ai/ha) was 0. The “RICE crop damage, phytotoxicity rating (0-100 scale)” value (from here on “RICE crop damage”) ([13]; 125 g ai/ha) was 0, the “RICE crop damage” value ([13]; 250 g ai/ha) was 0 and the “ECHCG phytotoxicity rating (0-100 scale)” value ([14]; 125 g ai/ha) was 0. The “ECHCG phytotoxicity rating (0-100 scale)” value ([14]; 250 g ai/ha) was 35, the “AMBEL phytotoxicity rating (0-100 scale)” value ([15]; 125 g ai/ha) was 0 and the “AMBEL phytotoxicity rating (0-100 scale)” value ([15]; 250 g ai/ha) was 0. For the same compound, the “SETVI phytotoxicity rating (0-100 scale)” value ([16]; 125 g ai/ha) was 50, the “SETVI phytotoxicity rating (0-100 scale)” value ([16]; 250 g ai/ha) was 50 and the “IPOHE phytotoxicity rating (0-100 scale)” value ([17]; 125 g ai/ha) was 0. The “IPOHE phytotoxicity rating (0-100 scale)” value ([17]; 250 g ai/ha) was 0, the “SORHA phytotoxicity rating (0-100 scale)” value ([18]; 125 g ai/ha) was 0 and the “SORHA phytotoxicity rating (0-100 scale)” value ([18]; 250 g ai/ha) was 0. The “CHEAL phytotoxicity rating (0-100 scale)” value ([19]; 125 g ai/ha) was 70, the “CHEAL phytotoxicity rating (0-100 scale)” value ([19]; 250 g ai/ha) was 70 and the “DIGSA phytotoxicity rating (0-100 scale)” value ([20]; 125 g ai/ha) was 0. The “DIGSA phytotoxicity rating (0-100 scale)” value ([20]; 250 g ai/ha) was 0, the “AMARE phytotoxicity rating (0-100 scale)” value ([21]; 125 g ai/ha) was 80 and the “AMARE phytotoxicity rating (0-100 scale)” value ([21]; 250 g ai/ha) was 80. For the same compound, the “CASOB phytotoxicity rating (0-100 scale)” value ([22]; 125 g ai/ha) was 0, the “CASOB phytotoxicity rating (0-100 scale)” value ([22]; 250 g ai/ha) was 0 and the “ABUTH phytotoxicity rating (0-100 scale)” value ([23]; 125 g ai/ha) was 0. For the same compound, the “ABUTH phytotoxicity rating (0-100 scale)” value ([23]; 250 g ai/ha) was 40, the “CORN crop damage” value ([24]; 125 g ai/ha) was 0 and the “CORN crop damage” value ([24]; 250 g ai/ha) was 0. For the same compound, the “SOY crop damage” value ([25]; 125 g ai/ha) was 0, the “SOY crop damage” value ([25]; 250 g ai/ha) was 0 and the “RICE crop damage” value ([26]; 125 g ai/ha) was 0. The “RICE crop damage” value ([26]; 250 g ai/ha) was 0.
